# Biological target: Human cytomegalovirus protease (Human herpesvirus 5)
# Experiment: Inhibitory activity against human cytomegalovirus (HCMV) protease
row,Structure (SMILES),IC50
1,CN(Cc1ccc(SC(F)(F)F)cc1)C(=O)N1C(=O)C[C@@H]1Cc1ccccc1 [(S)-2-Benzyl-4-oxo-azetidine-1-carboxylic acid methyl-(4-trifluoromethylsulfanyl-benzyl)-amide],6.9 µM
2,CN(Cc1ccc(Cl)cc1)C(=O)N1C(=O)C[C@@H]1Cc1ccccc1 [(S)-2-Benzyl-4-oxo-azetidine-1-carboxylic acid (4-chloro-benzyl)-methyl-amide],6.9 µM
3,Cc1ccc(CN(C)C(=O)N2C(=O)C[C@@H]2Cc2ccccc2)cc1 [(S)-2-Benzyl-4-oxo-azetidine-1-carboxylic acid methyl-(4-methyl-benzyl)-amide],8.9 µM
4,CN(Cc1ccc(N)cc1)C(=O)N1C(=O)C[C@@H]1Cc1ccccc1 [(S)-2-Benzyl-4-oxo-azetidine-1-carboxylic acid (4-amino-benzyl)-methyl-amide],20 µM
5,CC(=O)Nc1ccc(CN(C)C(=O)N2C(=O)C[C@@H]2Cc2ccccc2)cc1 [(S)-2-Benzyl-4-oxo-azetidine-1-carboxylic acid (4-acetylamino-benzyl)-methyl-amide],17 µM
6,CN(Cc1ccc(C#N)cc1)C(=O)N1C(=O)C[C@@H]1Cc1ccccc1 [(S)-2-Benzyl-4-oxo-azetidine-1-carboxylic acid (4-cyano-benzyl)-methyl-amide],6 µM
7,CC(C)c1ccc(CN(C)C(=O)N2C(=O)C[C@@H]2Cc2ccccc2)cc1 [(S)-2-Benzyl-4-oxo-azetidine-1-carboxylic acid (4-isopropyl-benzyl)-methyl-amide],6.4 µM
8,"CC1(C)C(=O)N(C(=O)NCc2ccncc2)[C@H]1Cc1ccccc1 [(S)-2-Benzyl-3,3-dimethyl-4-oxo-azetidine-1-carboxylic acid (pyridin-4-ylmethyl)-amide]",> 75 µM
9,CN(Cc1ccc([N+](=O)[O-])cc1)C(=O)N1C(=O)C[C@@H]1Cc1ccccc1 [(S)-2-Benzyl-4-oxo-azetidine-1-carboxylic acid methyl-(4-nitro-benzyl)-amide],1.5 µM
10,O=C1C[C@H](Cc2ccccc2)N1C(=O)NC1CCCCC1 [(S)-2-Benzyl-4-oxo-azetidine-1-carboxylic acid cyclohexylamide],8.4 µM
11,CN(Cc1cccc([N+](=O)[O-])c1)C(=O)N1C(=O)C[C@@H]1Cc1ccccc1 [(S)-2-Benzyl-4-oxo-azetidine-1-carboxylic acid methyl-(3-nitro-benzyl)-amide],6.9 µM
12,"CS[C@@H]1C(=O)N(C(=O)NCc2ccncc2)[C@H]1Cc1ccccc1 [(2S,3S)-2-Benzyl-3-methylsulfanyl-4-oxo-azetidine-1-carboxylic acid (pyridin-4-ylmethyl)-amide]",6.9 µM
13,CN(Cc1ccc(S(=O)(=O)C(F)(F)F)cc1)C(=O)N1C(=O)C[C@@H]1Cc1ccccc1 [(S)-2-Benzyl-4-oxo-azetidine-1-carboxylic acid methyl-(4-trifluoromethanesulfonyl-benzyl)-amide],4.3 µM

# The remaining lines, values ahead:
row,IC50,Structure (SMILES)
1,10 µM,O=C1C[C@H](Cc2ccccc2)N1C(=O)NCc1cccnc1 [(S)-2-Benzyl-4-oxo-azetidine-1-carboxylic acid (pyridin-3-ylmethyl)-amide]
2,5.2 µM,Cc1ccc(NC(=O)N2C(=O)C[C@@H]2Cc2ccccc2)cc1 [(S)-2-Benzyl-4-oxo-azetidine-1-carboxylic acid p-tolylamide]
3,4 µM,C[C@@H](NC(=O)N1C(=O)C[C@@H]1Cc1ccccc1)c1ccccc1 [(S)-2-Benzyl-4-oxo-azetidine-1-carboxylic acid ((R)-1-phenyl-ethyl)-amide]
4,6.2 µM,CON(Cc1ccccc1)C(=O)N1C(=O)C[C@@H]1Cc1ccccc1 [(S)-2-Benzyl-4-oxo-azetidine-1-carboxylic acid benzyl-methoxy-amide]
5,2.6 µM,CC[C@@H](NC(=O)N1C(=O)C[C@@H]1Cc1ccccc1)c1ccccc1 [(S)-2-Benzyl-4-oxo-azetidine-1-carboxylic acid ((R)-1-phenyl-propyl)-amide]
6,3.4 µM,CCC[C@@H](NC(=O)N1C(=O)C[C@@H]1Cc1ccccc1)c1ccccc1 [(S)-2-Benzyl-4-oxo-azetidine-1-carboxylic acid ((R)-1-phenyl-butyl)-amide]
7,> 75 µM,C[C@@H](NC(=O)N1C(=O)C[C@H]1Cc1ccccc1)c1ccccc1 [(R)-2-Benzyl-4-oxo-azetidine-1-carboxylic acid ((R)-1-phenyl-ethyl)-amide]
8,11 µM,CN(Cc1ccccc1[N+](=O)[O-])C(=O)N1C(=O)C[C@@H]1Cc1ccccc1 [(S)-2-Benzyl-4-oxo-azetidine-1-carboxylic acid methyl-(2-nitro-benzyl)-amide]
9,> 75 µM,O=C1C[C@H](Cc2ccccc2)N1C(=O)N(Cc1ccccc1)C1CC1 [(S)-2-Benzyl-4-oxo-azetidine-1-carboxylic acid benzyl-cyclopropyl-amide]
10,12 µM,O=C1C[C@H](Cc2ccccc2)N1C(=O)NCc1ccncc1 [(S)-2-Benzyl-4-oxo-azetidine-1-carboxylic acid (pyridin-4-ylmethyl)-amide]
11,10 µM,O=C1C[C@H](Cc2ccccc2)N1C(=O)NCc1ccccc1 [(S)-2-Benzyl-4-oxo-azetidine-1-carboxylic acid benzylamide]
12,42 µM,C[C@H](NC(=O)N1C(=O)C[C@@H]1Cc1ccccc1)c1ccccc1 [(S)-2-Benzyl-4-oxo-azetidine-1-carboxylic acid ((S)-1-phenyl-ethyl)-amide]
13,3.7 µM,O=C1C[C@H](Cc2ccccc2)N1C(=O)Nc1ccc(F)cc1 [(S)-2-Benzyl-4-oxo-azetidine-1-carboxylic acid (4-fluoro-phenyl)-amide]
14,33 µM,O=C1C[C@H](Cc2ccccc2)N1C(=O)NCc1ccccn1 [(S)-2-Benzyl-4-oxo-azetidine-1-carboxylic acid (pyridin-2-ylmethyl)-amide]
15,3.9 µM,COc1ccc(NC(=O)N2C(=O)C[C@@H]2Cc2ccccc2)cc1 [(S)-2-Benzyl-4-oxo-azetidine-1-carboxylic acid (4-methoxy-phenyl)-amide]
16,> 300 µM,CC1(C)C(=O)N(C(=O)NCc2ccncc2)[C@@H]1Cc1ccccc1
17,13 µM,O=C1C[C@H](Cc2ccccc2)N1C(=O)N(Cc1ccccc1)OCc1ccccc1 [(S)-2-Benzyl-4-oxo-azetidine-1-carboxylic acid benzyl-benzyloxy-amide]
